# Measured values published in paper PMC10779871, “Anti-Trypanosomal Bufadienolides from the Oocytes of the Toad Rhinella alata (Anura, Bufonidae)” (Molecules, 2023).
# Read-outs that look alike come from different tables or passages of the source.
# Experiments:
# [1] = Cytotoxicity assay (MTT) on Vero cells; format: cell-based; details: monkey, five days, read-out: VERO CELL CC50
# Experimental: Epithelial kidney monkey Vero cells were incubated at 37 °C in 96-well plates under an atmosphere of 5% CO2, using RPMI-1640 medium (Sigma-Aldrich, St. Louis, MO, USA) supplemented with 0.05% gentamicin (50 mg/mL) and 10% FBS (fetal bovine serum; Gibco, Invitrogen, Carlsbad, CA, USA). Cells were allowed to adhere for one day before incubation for five days with the compounds. Doxorubicin and DMSO were used as positive and negative controls, respectively. When the incubation period ended, 3-(4, 5-di-methyl-thiazol-2-yl)-2, 5-di-phenyl-tetra-zolium bromide (MTT) was added to the wells, and after 4 h, absorbance was measured at 570 nm using a color plate reader. Cytotoxicity was assessed colorimetrically by calculating the capacity of the remaining Vero cells to reduce the yellow MTT into the dark purple formazan product, as reported.
# (§1) All bioassays represent independent analysis and were carried out in duplicate. The data analysis complement Wizard of Excel 2000 (Microsoft, Seattle, WA, USA) was used for the statistical analysis of the 50% inhibiting (IC50) and cytotoxic (CC50) concentration values by adjusting the dose-response curve to a sigmoidal model.
# T. cruzi trypomastigotes = experiment: Anti-trypanosomal bioassay, T. cruzi Tulahuen clone C4 expressing β-galactosidase; format: cell-based, Trypanosoma cruzi; details: for EC50: Trypanosoma cruzi, 120 h, read-out: T. cruzi EC50; for Inhibition of the growth of T. cruzi trypomastigotes (in words): four concentrations, screening concentration of 10 µg/mL
# Experimental: Anti-trypanosomal bioassays were performed using the recombinant strain Tulahuen, clone C4, of T. cruzi in the form of trypomastigotes (ATCC, Manassas, VA, USA). This strain expresses the enzyme β-galactosidase. The parasites were incubated at 37 °C under an atmosphere of 5% CO2 in RPMI-1640 culture medium supplemented with L-glutamine,4-(2-hydroxyethyl)-piperazine-1-ethanesulfonic acid (HEPES) buffer, NaHCO3, 10% FBS and 0.05% gentamicin (50 mg/mL). Epithelial kidney monkey Vero cells (ATCC, Manassas, VA, USA) were incubated for 24 h and then infected with the parasites 24 h prior to the addition of the compounds. After additional 24 h of infection, the compounds (1–7) were dissolved in DMSO and tested at 10, 2, 0.4 and 0.08 µg/mL for five days. The drug benznidazole was used as a positive control. Chlorophenol-red-β-D-galactopyranoside (Roche Applied Science) was added to each well and then allowed to react with the β-galactosidase of the rest of the living parasites for 4.5 h to quantify the biological activity. Absorbance was measured at 570 nm using a plate reader (Sinergy HT, BioTek Instruments Inc., Winooski, VT, USA).
# as §1
# mouse macrophages = details: cited from earlier work
# erythrocytes = details: cited from earlier work
# [2] = tested on: Batrachochytrium dendrobatidis; details: cited from earlier work
# T. cruzi [3] = details: previous study; cited from earlier work
# Vero cells = tested on: Vero cells; parameters: method as in PMID 32061723; details: in comparison with bufadienolide 7; cited from earlier work
# T. cruzi [4] = tested on: T. cruzi; parameters: method as in PMID 32061723; details: read-out: IC50 anti-trypanosomal activity; cited from earlier work
# (Na+)ATPase = details: cited from earlier work
# [5] = cited from earlier work
# [6] = trypomastigote form, Tulahuen clone C4, five days, tested at 10, 2, 0.4 and 0.08 µg/mL
# [7] = monkey (Vero host cells), Trypanosoma cruzi (parasite), read-out: Selectivity (CC50/EC50)
Structure (SMILES),CC50 [1] [µM],EC50 (T. cruzi trypomastigotes; [6]) [µM],Inhibition of the growth of T. cruzi trypomastigotes (in words) (T. cruzi trypomastigotes),selectivity ratio (T. cruzi trypomastigotes; [7]),other results
"CC(=O)O[C@H]1[C@H]2O[C@]23[C@@H]2CC[C@]4(O)C[C@@H](O)CC[C@]4(C)[C@H]2CC[C@]3(C)[C@H]1c1ccc(=O)oc1 [Compound 5, cinobufotalin]",1.88 ± 0.2,27.8 ± 3.77,reduce the growth,0.07,–
"CC(=O)O[C@H]1C[C@]2(O)[C@@H]3CC[C@@H]4C[C@@H](O)CC[C@]4(C)[C@H]3CC[C@]2(C)[C@H]1c1ccc(=O)oc1 [Compound 4, bufotalin]",> 46,19.6 ± 2,reduce the growth,> 2,–
"C[C@]12CC[C@H](O)C[C@H]1CC[C@@H]1[C@@H]2CC[C@]2(C)[C@@H](c3ccc(=O)oc3)[C@@H](O)C[C@]12O [Compound 2, desacetyl-bufotalin]",> 28,–,–,–,melting point: 71 °C; T. cruzi EC50 (T. cruzi trypomastigotes; [6]): Inactive
"CCC(=O)OC1C(c2ccc(=O)oc2)C2(C)CCC3C(CCC4(O)CC(O)CCC34C=O)C23OC13 (stereo not drawn) [Compound 3, 19-formyl-dyscinobufotalin]",0.22 ± 0.09,0.19 ± 0.07,reduce the growth,1.16,–
C[C@]12CC[C@H](O)C[C@@]1(O)CC[C@@H]1[C@@H]2CC[C@]2(C)[C@@H](c3ccc(=O)oc3)CC[C@]12O [telocinobufagin],–,–,–,–,Cytotoxicity on mouse macrophages (in words) (mouse macrophages): no toxic effects; Cytotoxicity on erythrocytes (in words) (erythrocytes): no toxic effects; Inhibition of Batrachochytrium dendrobatidis in vitro (in words) [2]: inhibit; Trypanocidal activity (T. cruzi [3]): inactive
C[C@]12CC[C@H](O)C[C@H]1CC[C@@H]1[C@@H]2[C@H](O)C(=O)[C@]2(C)[C@@H](c3ccc(=O)oc3)CC[C@]12O [Arenobufagin],–,–,–,–,Inhibition of Batrachochytrium dendrobatidis in vitro (in words) [2]: inhibit
"CCC(=O)OC1C(c2ccc(=O)oc2)C2(C)CCC3C(CCC4(O)CC(O)CCC34C)C23OC13 (stereo not drawn) [Compound 6, dyscinobufotalin]",0.02 ± 0.002,12.3 ± 1.87,reduce the growth,< 0.01,–
C[C@]12CC[C@H]3[C@@H](CC[C@@H]4C[C@@H](O)CC[C@@]43CO)[C@@]1(O)CC[C@@H]2c1ccc(=O)oc1 [19-hydroxy-bufalin],–,–,–,–,Cytotoxicity against Vero cells (in words) (Vero cells): low cytotoxicity; IC50 (T. cruzi [4]): 19.4 µM
"C[C@]12CC[C@H](O)C[C@H]1CC[C@@H]1[C@@H]2CC[C@]2(C)[C@@H](c3ccc(=O)oc3)CC[C@]12O [Compound 7, bufalin]",–,–,reduce the growth,–,"CC50 at 5 days [1]: 10.6 ± 1.54 µM; EC50 (T. cruzi trypomastigotes; TULAHUEN): 3.93 ± 0.57 µM; Selectivity (CC50/EC50) (T. cruzi trypomastigotes; cytotoxicity on Vero cells/anti-trypanosomal activity ratio): 2.69; selectivity ratio at 5 days (T. cruzi trypomastigotes; monkey (Vero host cells), Trypanosoma cruzi (parasite), cytotoxicity on Vero cells/anti-trypanosomal activity ratio, read-out: Selectivity (CC50/EC50)): 2.7"
C[C@]12CC[C@H]3[C@@H](CC[C@]4(O)C[C@@H](O)CC[C@]34C=O)[C@@]1(O)CC[C@@H]2c1ccc(=O)oc1 [hellebrigenin],–,–,–,–,Cytotoxicity on mouse macrophages (in words) (mouse macrophages): no toxic effects; Cytotoxicity on erythrocytes (in words) (erythrocytes): no toxic effects; Trypanocidal activity (T. cruzi [3]): 91.7 µg/mL
C[C@]12CC[C@H](O)C[C@H]1CC[C@@H]1[C@@H]2[C@H](O)C[C@]2(C)[C@@H](c3ccc(=O)oc3)CC[C@]12O [γ-bufotalin],–,–,–,–,Inhibition of Batrachochytrium dendrobatidis in vitro (in words) [2]: inhibit
C[C@@H]1O[C@@H](O[C@H]2C[C@@H](O)[C@]3(CO)[C@H]4[C@H](O)C[C@]5(C)[C@@H](C6=CC(=O)OC6)CC[C@]5(O)[C@@H]4CC[C@]3(O)C2)[C@H](O)[C@H](O)[C@H]1O [ouabain],–,–,–,–,Inhibition of enzymatic activity of (Na+)ATPase (in words) ((Na+)ATPase): not inhibited
"O=C(Cn1ccnc1[N+](=O)[O-])NCc1ccccc1 [Benznidazole, reference compound]",51.4 ± 6,2.73 ± 0.1,–,18.8,–
"COc1cccc2c1C(=O)c1c(O)c3c(c(O)c1C2=O)C[C@@](O)(C(=O)CO)C[C@@H]3O[C@H]1C[C@H](N)[C@H](O)[C@H](C)O1 [Doxorubicin, reference compound]",0.23,–,–,–,–
"CC12CCC3C(CCC4(O)CC(O)CCC34C=O)C1(O)CC(O)C2c1ccc(=O)oc1 (stereo not drawn) [Compound 1, 16β-hydroxyl-hellebrigenin]",> 135,22.8 ± 4.11,reduce the growth,> 5,–
Clc1ccc(C2CC3CCC2N3)cn1 (stereo not drawn) [epibatidine],–,–,–,–,Analgesic potency relative to morphine [5]: 200 times more potent than morphine
